Measured values: patent US12090147B2, “Combination therapy with 2-(4-chlorophenyl)-N-((2-(2,6-dioxopiperidin-3-yl)-1-oxoisoindolin-5-yl)methyl)-2,2-difluoroacetamide” (Celgene Corporation, priority 2019, dated 2024)

Legend:
Format in all cases: cell-based, human
[1] = test system: ML-2 cells; assay: Immunoblot analysis of target proteins
Description: Cells were washed in ice-cold 1×PBS twice before harvest in Cell Extraction Buffer (ThermoFisher Cat No. FNN0011) supplemented with 1× Halt Protease Inhibitor Cocktail (ThermoFisher Cat No. 78429). Whole cell extracts were collected after centrifugation at 14,000 g for 10 minutes, resolved on 4-12% Bis-Tris Novex Precast Gels (ThermoFisher Cat No. WG1403A), transferred onto a nitrocellulose membrane using the Turboblot Turbo Transfer System (Bio-Rad), and probed with the indicated primary antibodies. Bound antibodies were detected with IRDye-680 or -800 conjugated secondary antibodies using a LI-COR scanner.
Antibodies used for immunoblot: mouse anti-human GSPT-1 mAb conjugated with AL647 (clone number GSPT1-164-17G9-G6, Celgene, San Diego, CA), IL-1β (R&D Systems, Cat No. AF-201-NA), cleaved caspase 3 (Cell Signaling, Cat No. 9664S), alpha-tubulin (Cell Signaling, Cat No. 3873S), cleaved Caspase-8 (Cell Signaling, Cat No. 9748S), Caspase-1 (Cell Signaling, Cat No. 3866S), HA tag (Cell Signaling, Cat No. 3724), phosphor-eIF2a (Cell Signaling, Cat No. 9721), total eIF2a (Cell Signaling, Cat No. 9722), ATF4 (Cell Signaling, Cat No. 11815S), CHOP (Abcam, Cat No. 11419), GAPDH (Cell Signaling, Cat No. 5174), rabbit anti-mouse 800 antibody (LI-COR Biosciences), rabbit anti-mouse 680 antibody (LI-COR Biosciences), mouse anti-rabbit 680 antibody (LI-COR Biosciences), mouse anti-rabbit 800 antibody (LI-COR Biosciences)
(§1) The level of intracellular pro IL-1β and released IL-1β in eight AML cell lines and normal PBMC treated with a titration of Compound 1 over a 48 hour period was assessed. (see FIGS. 1A-1C, Table 2). Supernatant IL-1βb level was induced over 5 fold in 6 out of 8 AML cell lines and normal PBMC upon Compound 1 treatment compared to DMSO (FIGS. 1A, 1B, and 1C, Table 2).

[2] = test system: MV4-11; assay: Caspase 8/FLICE activity colorimetric assay; settings: compounds at 1 μM, 24, 48 and 72 hours
Description: (§2) Next, tests were performed to see if caspase 8 activation alone is sufficient to mediate IL-1β induction. […] To ensure caspase 8 activity was captured at an appropriate time frame, caspase 8 activation levels at 24, 48 and 72 hours were measured (FIGS. 3C and 3D) using a caspase 8/FLICE activity colorimetric assay.

[3] = test system: ML-2; assay: Caspase 8/FLICE activity colorimetric assay; settings: compounds at 1 μM, 24, 48 and 72 hours
Description: as §2

[4] = test system: eight AML cell lines and normal PBMC; assay: IL-1 family cytokine induction across the cell panel
Description: For cytokine assays on AML cell lines, cells were seeded at 1 million per mL, 3 mL per well of 6-well plates and allowed set overnight. The next day, cells were treated with 3 μL 1000× working stock of compounds of interest.
IL-1α (Meso Scale Disgnostics, Cat No. K151RBD), IL-1β (Meso Scale Disgnostics, Cat No. K151QPD), IL-1RA (Meso Scale Disgnostics, Cat No. K151WTD), IL-18 (Meso Scale Disgnostics, Cat No. K151VJK), TNFa (Meso Scale Disgnostics, Cat No. K151QWD), VEGF Meso Scale Disgnostics, Cat No. K151RHD) levels were measured by (Meso Scale Disgnostics assay kits following manufacturer's instructions. Measurements were made on a MESO™ SECTOR S 600 plate reader (Meso Scale Disgnostics).
as §1
The maturation of IL-1β can be mediated through classical caspase-1 inflammasome pathway, or a caspase-8 dependent non-canonical inflammasome signaling (Antonopoulos et al. J Biol Chem. 2015, 290(33):20167-84; Chauhan et al. Cell Rep. 2018, 25(9):2354-2368; and Schneider et al. Cell Rep. 2017, 21(13):3846-3859). To understand if classical caspase-1 mediated inflammasome pathway was activated by Compound 1, the levels of an inflammasome marker, IL-18, were tested in response to Compound 1 (FIG. 1B, Table 1), using a known inflammasome stimulant lipopolysaccharide (LPS) as positive control.

[5] = most cell lines tested (FIG. 1B: ML-2), LPS as positive control

O=C1CCC(N2Cc3cc(CNC(=O)C(F)(F)c4ccc(Cl)cc4)ccc3C2=O)C(=O)N1 (centres unmarked) [Compound 1, 2-(4-chlorophenyl)-N-((2-(2,6-dioxopiperidin-3-yl)-1-oxoisoindolin-5-yl)methyl)-2,2-difluoroacetamide]
Intracellular pro-IL-1β (immunoblot) ([1]; 24, 48 and 72 hours, doses conferring similar caspase3/7 activation and viability loss): conferred induction | Cleaved caspase 3 (immunoblot) ([1]; 24 hours): concurrent induction of cleaved caspase 3 | GSPT1 level (immunoblot) ([1]; two high doses of Compound 1 at 24 hours): significant reduction of GSPT1 | Caspase 8 activation level [2]: not the most efficient caspase 8 activating compound across all time points tested | Caspase 8 activation level [3]: not the most efficient caspase 8 activating compound across all time points tested | Supernatant IL-1β level induction compared to DMSO ([4]; in 6 out of 8 AML cell lines and normal PBMC, titration of Compound 1 over a 48 hour period): over 5 fold | IL-1α, IL-1β and IL-1RA induction [4, 5]: induced IL-1α, IL-1β and IL-1RA post-apoptosis | IL-18 levels (inflammasome marker) [4, 5]: without significantly increased the levels of IL-18
